Measured values: patent US12122770B1, “2-(benzo[d]oxazol-2-yl)-n'-(nicotinoyloxy)acetimidamide as an antimicrobial compound” (KING FAISAL UNIVERSITY, priority 2023, dated 2024)

Tests used:
Aspergillus flavus = assay: Agar plate disc-diffusion, antifungal activity (inhibition zone); format: cell-based; conditions: fungal, 72 hours, DMSO zone subtracted; for inhibition zone, Aspergillus flavus, A: A = concentration of comp. = 10,000 μL; for inhibition zone, Aspergillus flavus, B: B = concentration of comp. = 30,000 μL; for inhibition zone, Aspergillus flavus, C: C = concentration of comp. = 50,000 μL
Method: (§1) The agar plate disc-diffusion method was applied. […] The discs were then placed onto the surface of agar plates (nutrient agar for bacteria and Sabouraud's dextrose agar for fungi) seeded with the test organism. Each plate contained 15 mL of the agar medium, previously seeded with 0.2 mL of the broth culture of each organism pregrown for 18 hours. The plates were incubated at 37° C. for 48 hours, and 72 hours for fungi. The inhibition zones was measured in mm. Discs impregnated with DMSO were used as a control, and its inhibition zone was subtracted from the tested compound actual inhibition zone.

[1] = system: Chrysosporium keratinophilum; assay: as above; format: cell-based; conditions: fungal, 72 hours, DMSO zone subtracted; for inhibition zone, Chrysosporium keratinophilum, A: A = concentration of comp. = 10,000 μL; for inhibition zone, Chrysosporium keratinophilum, B: B = concentration of comp. = 30,000 μL; for inhibition zone, Chrysosporium keratinophilum, C: C = concentration of comp. = 50,000 μL
Method: as §1

Pseudomonas aeruginosa = assay: Agar plate disc-diffusion, antibacterial activity (inhibition zone); format: cell-based; conditions: Gram negative, DMSO zone subtracted; for inhibition zone, Pseudomonas aeruginosa, A: A = concentration of comp. = 10,000 μL; for inhibition zone, Pseudomonas aeruginosa, B: B = concentration of comp. = 30,000 μL; for inhibition zone, Pseudomonas aeruginosa, C: C = concentration of comp. = 50,000 μL
Method: as §1

Staphylococcus aureus = assay: as above; format: cell-based; conditions: Gram positive, DMSO zone subtracted; for inhibition zone, Staphylococcus aureus, A: A = concentration of comp. = 10,000 μL; for inhibition zone, Staphylococcus aureus, B: B = concentration of comp. = 30,000 μL; for inhibition zone, Staphylococcus aureus, C: C = concentration of comp. = 50,000 μL
Method: as §1

Bacillus Cereus = assay: as above; format: cell-based; conditions: Gram positive, DMSO zone subtracted; for inhibition zone, Bacillus Cereus, A: A = concentration of comp. = 10,000 μL; for inhibition zone, Bacillus Cereus, B: B = concentration of comp. = 30,000 μL; for inhibition zone, Bacillus Cereus, C: C = concentration of comp. = 50,000 μL
Method: as §1

Escherichia coli = assay: as above; format: cell-based; conditions: Gram negative, DMSO zone subtracted; for inhibition zone, Escherichia coli, A: A = concentration of comp. = 10,000 μL; for inhibition zone, Escherichia coli, B: B = concentration of comp. = 30,000 μL; for inhibition zone, Escherichia coli, C: C = concentration of comp. = 50,000 μL
Method: as §1

SMILES	inhibition zone, Aspergillus flavus, A (Aspergillus flavus) [mm]	inhibition zone, Aspergillus flavus, B (Aspergillus flavus) [mm]	inhibition zone, Aspergillus flavus, C (Aspergillus flavus) [mm]	inhibition zone, Chrysosporium keratinophilum, A [1] [mm]	inhibition zone, Chrysosporium keratinophilum, B [1] [mm]	inhibition zone, Chrysosporium keratinophilum, C [1] [mm]	inhibition zone, Pseudomonas aeruginosa, A (Pseudomonas aeruginosa) [mm]	inhibition zone, Pseudomonas aeruginosa, B (Pseudomonas aeruginosa) [mm]	inhibition zone, Pseudomonas aeruginosa, C (Pseudomonas aeruginosa) [mm]	inhibition zone, Staphylococcus aureus, A (Staphylococcus aureus) [mm]	inhibition zone, Staphylococcus aureus, B (Staphylococcus aureus) [mm]	inhibition zone, Staphylococcus aureus, C (Staphylococcus aureus) [mm]	inhibition zone, Bacillus Cereus, A (Bacillus Cereus) [mm]	inhibition zone, Bacillus Cereus, B (Bacillus Cereus) [mm]	inhibition zone, Bacillus Cereus, C (Bacillus Cereus) [mm]	inhibition zone, Escherichia coli, A (Escherichia coli) [mm]	inhibition zone, Escherichia coli, B (Escherichia coli) [mm]	inhibition zone, Escherichia coli, C (Escherichia coli) [mm]	melting point [°C]
O=C(O)c1cn(C2CC2)c2cc(N3CCNCC3)c(F)cc2c1=O [Cip., ciprofloxacin, reference compound]	28	31	43	30	33	55	29	30	53	43	44	53	29	31	42	30	39	60	
N/C(Cc1nc2ccccc2o1)=N\OC(=O)c1cccnc1 [compound 3, 2-(benzo[d]oxazol-2-yl)-N′-(nicotinoyloxy)acetimidamide]	21	24	32	26	29	48	23	25	40	28	31	40	26	29	37	26	33	47	155 to 156
